Experiment [1] addresses T1, GPR6 (Homo sapiens, UniProt P46095).
T1 construct: expressed in transfected cells; host or cells: CHO cells
As to the kind of experiment: GPR6 antagonist functional cAMP assay (LANCE Ultra cAMP TR-FRET, CHO cells stably expressing GPR6). The experiment is classed as cell-based. Conditions: procedure of Example 24. The essentials: (§1)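 Read-out was TR-FRET cAMP signal at 665 nm after 1 h at room temperature, following 45 min compound exposure at 37 °C. Assay buffer contained 0.1% BSA and 150 μM Ro 20-1724. Antagonist IC50s were fitted with a 4-parameter logistic against DMSO and reference controls.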
A general note: cAMP levels reflect the balance of adenylyl cyclase and phosphodiesterase activity.

Experiment [2] deals with T2, GPR3 (Homo sapiens, UniProt P46089).
T2 construct: expressed in transfected cells; host or cells: CHO cells
T2 sequence (P46089 whole entry, species assumed): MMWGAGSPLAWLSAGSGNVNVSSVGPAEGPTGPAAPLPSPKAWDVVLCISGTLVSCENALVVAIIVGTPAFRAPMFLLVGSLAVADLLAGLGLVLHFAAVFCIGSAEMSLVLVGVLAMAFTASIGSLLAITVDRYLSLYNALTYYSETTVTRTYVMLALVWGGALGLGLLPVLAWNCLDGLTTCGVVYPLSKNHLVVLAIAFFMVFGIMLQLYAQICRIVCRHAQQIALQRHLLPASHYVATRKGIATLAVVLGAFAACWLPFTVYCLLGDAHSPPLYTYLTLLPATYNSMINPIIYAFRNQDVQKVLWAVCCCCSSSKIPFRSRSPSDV
As to the kind of experiment: GPR3 antagonist functional cAMP assay (LANCE Ultra cAMP TR-FRET, CHO cells stably expressing GPR3). It is filed as cell-based. Conditions: procedure of Example 24. An outline of the steps:
as §1

Some results are limits rather than exact numbers.

What is called IC50 is the concentration at which inhibition is half-maximal. A high value points to a need for much substance.

T1 sequence (P46095 whole entry): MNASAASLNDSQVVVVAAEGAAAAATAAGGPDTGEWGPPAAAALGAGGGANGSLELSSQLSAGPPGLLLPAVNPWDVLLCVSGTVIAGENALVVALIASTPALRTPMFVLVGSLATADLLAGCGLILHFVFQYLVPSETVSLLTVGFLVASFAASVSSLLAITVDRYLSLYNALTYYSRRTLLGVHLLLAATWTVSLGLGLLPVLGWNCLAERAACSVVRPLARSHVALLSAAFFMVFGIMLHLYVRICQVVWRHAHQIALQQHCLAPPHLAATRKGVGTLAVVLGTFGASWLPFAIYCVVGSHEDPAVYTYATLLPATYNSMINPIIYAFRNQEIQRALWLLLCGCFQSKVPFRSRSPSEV

Regarding `CC(=O)OC1CCN(c2nc3c(nc2-c2cnn(C)c2)CN(C(C)=O)CC3)C1` (stereo not shown) [Compound 315, 1-[6-acetyl-3-(1-methyl-1H-pyrazol-4-yl)-5H,6H,7H,8H-pyrido[3,4-b]pyrazin-2-yl]pyrrolidin-3-yl acetate], the IC50 in experiment [1] was ≥ 30 µM; in experiment [2] it was 100 to 1000 nM.
`COc1ccc(CN2CCN(c3nc4c(nc3-c3cnn(C)c3)CN(C(C)=O)CC4)CC2)c(F)c1` [Compound 316, 1-(2-{4-[(2-fluoro-4-methoxyphenyl)methyl]piperazin-1-yl}-3-(1-methyl-1H-pyrazol-4-yl)-5H,6H,7H,8H-pyrido[3,4-b]pyrazin-6-yl)ethan-1-one]: the IC50 is 0.1 to 1 µM in experiment [1] and 1000 to 30000 nM in experiment [2].
For the compound `COc1ccc(CN2CCN(c3nc4c(nc3-c3cnn(C)c3)CN(C(C)=O)CC4)CC2)cc1` [Compound 317, 1-(2-{4-[(4-methoxyphenyl)methyl]piperazin-1-yl}-3-(1-methyl-1H-pyrazol-4-yl)-5H,6H,7H,8H-pyrido[3,4-b]pyrazin-6-yl)ethan-1-one], the IC50 is 1 to 30 µM in experiment [1] and 1000 to 30000 nM in experiment [2].
For `COc1cccc(CN2CCN(c3nc4c(nc3-c3cnn(C)c3)CN(C(C)=O)CC4)CC2)c1F` [Compound 318, 1-(2-{4-[(2-fluoro-3-methoxyphenyl)methyl]piperazin-1-yl}-3-(1-methyl-1H-pyrazol-4-yl)-5H,6H,7H,8H-pyrido[3,4-b]pyrazin-6-yl)ethan-1-one] the same measures were ≥ 30 µM and 1000 to 30000 nM.
For `COc1ccc(CN2CCN(c3nc4c(nc3-c3cnn(C)c3)CN(C(C)=O)CC4)CC2)cc1F` [Compound 319, 1-(2-{4-[(3-fluoro-4-methoxyphenyl)methyl]piperazin-1-yl}-3-(1-methyl-1H-pyrazol-4-yl)-5H,6H,7H,8H-pyrido[3,4-b]pyrazin-6-yl)ethan-1-one] the same measures were 1 to 30 µM and 1000 to 30000 nM.
With `CC(=O)N1CCc2nc(N3CCN(Cc4cccc(F)c4F)CC3)c(-c3cnn(C)c3)nc2C1` [Compound 320, 1-(2-{4-[(2,3-difluorophenyl)methyl]piperazin-1-yl}-3-(1-methyl-1H-pyrazol-4-yl)-5H,6H,7H,8H-pyrido[3,4-b]pyrazin-6-yl)ethan-1-one], the values for the IC50 in experiment [1] and in experiment [2] were 1 to 30 µM and 1000 to 30000 nM, respectively.
Turning to `CC(=O)N1CCc2nc(N3CCN(Cc4ccc(F)c(F)c4)CC3)c(-c3cnn(C)c3)nc2C1` [Compound 321, 1-(2-{4-[(3,4-difluorophenyl)methyl]piperazin-1-yl}-3-(1-methyl-1H-pyrazol-4-yl)-5H,6H,7H,8H-pyrido[3,4-b]pyrazin-6-yl)ethan-1-one], the IC50 in experiment [1] lay in the range of 1 to 30 µM; in experiment [2], 1000 to 30000 nM.
`COc1ccc(CN2CCN(c3nc4c(nc3-c3cnn(C)c3)CN(C(C)=O)CC4)CC2)c(OC)c1` [Compound 322, 1-(2-{4-[(2,4-dimethoxyphenyl)methyl]piperazin-1-yl}-3-(1-methyl-1H-pyrazol-4-yl)-5H,6H,7H,8H-pyrido[3,4-b]pyrazin-6-yl)ethan-1-one]: the results for the IC50 in experiment [1] and in experiment [2] were ≥ 30 µM and 1000 to 30000 nM, respectively.
For `CC(=O)N1CCc2nc(N3CCC(COc4ccccc4F)C3)c(-c3cnn(C)c3)nc2C1` (stereo not shown) [Compound 323, 1-(2-{3-[(2-fluorophenoxy)methyl]pyrrolidin-1-yl}-3-(1-methyl-1H-pyrazol-4-yl)-5H,6H,7H,8H-pyrido[3,4-b]pyrazin-6-yl)ethan-1-one] the same measures were 1 to 30 µM and 1000 to 30000 nM.
For `CC(=O)N1CCc2nc(N3CCC(COc4cccc(F)c4)C3)c(-c3cnn(C)c3)nc2C1` (stereo not shown) [Compound 324, 1-(2-{3-[(3-fluorophenoxy)methyl]pyrrolidin-1-yl}-3-(1-methyl-1H-pyrazol-4-yl)-5H,6H,7H,8H-pyrido[3,4-b]pyrazin-6-yl)ethan-1-one], the IC50 in experiment [1] lay within 1 to 30 µM; in experiment [2] it was 1000 to 30000 nM.
For `CC(=O)N1CCc2nc(N3CCC(COc4ccc(F)cc4)C3)c(-c3cnn(C)c3)nc2C1` (stereo not shown) [Compound 325, 1-(2-{3-[(4-fluorophenoxy)methyl]pyrrolidin-1-yl}-3-(1-methyl-1H-pyrazol-4-yl)-5H,6H,7H,8H-pyrido[3,4-b]pyrazin-6-yl)ethan-1-one] the same measures were 1 to 30 µM and 1000 to 30000 nM.
For `CC(=O)N1CCc2nc(N3CCC(Oc4ccc(F)cc4F)CC3)c(-c3ccc4c(n3)OCC4)nc2C1` [Compound 326, 1-{2-[4-(2,4-difluorophenoxy)piperidin-1-yl]-3-{2H,3H-furo[2,3-b]pyridin-6-yl}-5H,6H,7H,8H-pyrido[3,4-b]pyrazin-6-yl}ethan-1-one] the same measures were 1 to 30 µM and 1000 to 30000 nM.
On to `Cn1cc(-c2nc3cnccc3nc2N2CC(Oc3ccc(F)cc3F)C2)cn1` [Compound 327, 4-{2-[3-(2,4-difluorophenoxy)azetidin-1-yl]pyrido[3,4-b]pyrazin-3-yl}-1-methyl-1H-pyrazole], for which the IC50 fell in the range of 1 to 30 µM in experiment [1] and 1000 to 30000 nM in experiment [2].
For `Cn1cc(-c2nc3c(Cl)nccc3nc2N2CCC(Oc3ccc(F)cc3F)CC2)cn1` [Compound 328, 1-[5-chloro-3-(1-methyl-1H-pyrazol-4-yl)pyrido[3,4-b]pyrazin-2-yl]-4-(2,4-difluorophenoxy)piperidine], the IC50 in experiment [1] is 0.1 to 1 µM; in experiment [2] it was 1000 to 30000 nM.
With `CNc1cncc(-c2nc3c(nc2N2CCC(Oc4ccc(F)cc4F)CC2)CCN(C(C)=O)C3)n1` [Compound 329, 1-{2-[4-(2,4-difluorophenoxy)piperidin-1-yl]-3-[6-(methylamino)pyrazin-2-yl]-5H,6H,7H,8H-pyrido[3,4-b]pyrazin-6-yl}ethan-1-one], the IC50 was < 0.1 µM in experiment [1] and 100 to 1000 nM in experiment [2].
Turning to `Cn1cc(-c2nc3cnc(C(N)=O)cc3nc2N2CCC(Oc3ccc(F)cc3F)CC2)cn1` [Compound 330, 2-[4-(2,4-difluorophenoxy)piperidin-1-yl]-3-(1-methyl-1H-pyrazol-4-yl)pyrido[3,4-b]pyrazine-7-carboxamide], the IC50 lay within 0.1 to 1 µM in experiment [1] and 1000 to 30000 nM in experiment [2].
For the compound `CC(=O)N1CCc2nc(N3CCCC(Oc4ccccc4)C3)c(-c3cnn(C)c3)nc2C1` (stereo not shown) [Compound 335, 1-[3-(1-methyl-1H-pyrazol-4-yl)-2-(3-phenoxypiperidin-1-yl)-5H,6H,7H,8H-pyrido[3,4-b]pyrazin-6-yl]ethan-1-one], the figures for the IC50 in experiment [1] and in experiment [2] were ≥ 30 µM and 1000 to 30000 nM, respectively.
Consider `CC(=O)N1CCc2nc(N3CCCC(Oc4ccccc4F)C3)c(-c3cnn(C)c3)nc2C1` (stereo not shown) [Compound 336, 1-{2-[3-(2-fluorophenoxy)piperidin-1-yl]-3-(1-methyl-1H-pyrazol-4-yl)-5H,6H,7H,8H-pyrido[3,4-b]pyrazin-6-yl}ethan-1-one], for which the IC50 in experiment [1] was ≥ 30 µM; in experiment [2], 100 to 1000 nM.
As for `CC(=O)N1CCc2nc(N3CCCC(Oc4cccc(F)c4)C3)c(-c3cnn(C)c3)nc2C1` (stereo not shown) [Compound 337, 1-{2-[3-(3-fluorophenoxy)piperidin-1-yl]-3-(1-methyl-1H-pyrazol-4-yl)-5H,6H,7H,8H-pyrido[3,4-b]pyrazin-6-yl}ethan-1-one], the results for the IC50 in experiment [1] and in experiment [2] were ≥ 30 µM and 1000 to 30000 nM, respectively.
For the compound `CC(=O)N1CCc2nc(N3CCCC(Oc4ccc(F)cc4)C3)c(-c3cnn(C)c3)nc2C1` (stereo not shown) [Compound 338, 1-{2-[3-(4-fluorophenoxy)piperidin-1-yl]-3-(1-methyl-1H-pyrazol-4-yl)-5H,6H,7H,8H-pyrido[3,4-b]pyrazin-6-yl}ethan-1-one], the figures for the IC50 in experiment [1] and in experiment [2] were ≥ 30 µM and 1000 to 30000 nM, respectively.
With `CC(=O)N1CCc2nc(N3CCCC(Oc4cc(F)ccc4F)C3)c(-c3cnn(C)c3)nc2C1` (stereo not shown) [Compound 339, 1-{2-[3-(2,5-difluorophenoxy)piperidin-1-yl]-3-(1-methyl-1H-pyrazol-4-yl)-5H,6H,7H,8H-pyrido[3,4-b]pyrazin-6-yl}ethan-1-one], the IC50 is ≥ 30 µM in experiment [1] and 100 to 1000 nM in experiment [2].
Regarding `CC(=O)N1CCc2nc(N3CCC(Oc4ccccc4F)C3)c(-c3cnn(C)c3)nc2C1` (stereo not shown) [Compound 340, 1-{2-[3-(2-fluorophenoxy)pyrrolidin-1-yl]-3-(1-methyl-1H-pyrazol-4-yl)-5H,6H,7H,8H-pyrido[3,4-b]pyrazin-6-yl}ethan-1-one], the IC50 in experiment [1] is 1 to 30 µM; in experiment [2] it was ≥ 30000 nM.
As to `CC(=O)N1CCc2nc(N3CCC(Oc4ccc(F)cc4)C3)c(-c3cnn(C)c3)nc2C1` (stereo not shown) [Compound 341, 1-{2-[3-(4-fluorophenoxy)pyrrolidin-1-yl]-3-(1-methyl-1H-pyrazol-4-yl)-5H,6H,7H,8H-pyrido[3,4-b]pyrazin-6-yl}ethan-1-one], the values for the IC50 in experiment [1] and in experiment [2] were 1 to 30 µM and 1000 to 30000 nM, respectively.
On to `CC(=O)N1CCc2nc(N3CCC(Oc4cc(F)ccc4F)C3)c(-c3cnn(C)c3)nc2C1` (stereo not shown) [Compound 342, 1-{2-[3-(2,5-difluorophenoxy)pyrrolidin-1-yl]-3-(1-methyl-1H-pyrazol-4-yl)-5H,6H,7H,8H-pyrido[3,4-b]pyrazin-6-yl}ethan-1-one], for which the IC50 lay in the range of 1 to 30 µM in experiment [1] and 100 to 1000 nM in experiment [2].
For `CC(=O)N1CCc2nc(N3CCN(Cc4c(F)cc(F)cc4F)CC3)c(-c3cnn(C)c3)nc2C1` [Compound 343, 1-[3-(1-methyl-1H-pyrazol-4-yl)-2-{4-[(2,4,6-trifluorophenyl)methyl]piperazin-1-yl}-5H,6H,7H,8H-pyrido[3,4-b]pyrazin-6-yl]ethan-1-one], the IC50 in experiment [1] lay in the range of 1 to 30 µM; in experiment [2], 1000 to 30000 nM.
For the compound `COc1ccc(CN2CCN(c3nc4c(nc3-c3cnn(C)c3)CN(C(C)=O)CC4)CC2)cn1` [Compound 345, 1-(2-{4-[(6-methoxypyridin-3-yl)methyl]piperazin-1-yl}-3-(1-methyl-1H-pyrazol-4-yl)-5H,6H,7H,8H-pyrido[3,4-b]pyrazin-6-yl)ethan-1-one], the IC50 in experiment [1] fell in the range of 1 to 30 µM; in experiment [2], 1000 to 30000 nM.
